One may read the IC50 as the concentration at which inhibition is half-maximal.

Data on seven compounds can be found in ChEMBL document CHEMBL6087425, “Synthesis and evaluation of anti-Giardia activity of oseltamivir analogs” (Bioorg Med Chem Lett, 2025).

Assay [1] relates to Giardia intestinalis. Put plainly: Anti-parasitic activity against Giardia intestinalis assemblage A ATCC 30957 trophozoites assessed as inhibition of cyst production incubated for 24 hrs. In kind it is functional, organism-based. The conditions noted are these: Giardia duodenalis, assemblage A ATCC 30957, 24 h.
For assay [2], the system named is Giardia intestinalis. The assay can be described thus: Anti-parasitic activity against Giardia intestinalis assemblage A ATCC 30957 trophozoites assessed as inhibition of parasite growth incubated for 24 hrs. In kind it is functional, organism-based. The settings on record: Giardia duodenalis, assemblage A ATCC 30957, 24 h.

Take `CCOC(=O)C1=C[C@@H](OC(CC)CC)[C@H](NC(C)=O)[C@@H](N)C1` [OSELTAMIVIR]: the IC50 in the assay on Giardia intestinalis [1] was 46 µM; with Giardia intestinalis [2] it was above 120 µM.
`Cc1ncc([N+](=O)[O-])n1CCO` [METRONIDAZOLE]: the IC50 with Giardia intestinalis [1] and in the assay on Giardia intestinalis [2] was 4 µM each time.
Consider `CCC(CC)O[C@@H]1CC(C(=O)O)=C[C@H](N)[C@H]1NC(C)=O`, for which the concentration for half-maximal inhibition (IC50) stood at 42 µM in the assay on Giardia intestinalis [1] and 49 µM in the assay with Giardia intestinalis [2].
The matching figures for `CCC(CC)O[C@@H]1CC(C(=O)O)=C[C@H](N=[N+]=[N-])[C@H]1NC(C)=O`: 50 µM and 30 µM.
`CCOC(=O)C1=C[C@H](NC(=O)CF)[C@@H](NC(C)=O)[C@H](OC(CC)CC)C1`: the figures for the IC50 in the assay on Giardia intestinalis [1] and in the assay on Giardia intestinalis [2] were 41 µM and 54 µM, respectively.
The like results for `CCCC(=O)N[C@@H]1[C@@H](N=[N+]=[N-])C=C(C(=O)O)C[C@H]1OC(CC)CC` were, in that order, 46 µM and 51 µM.
The like results for `CCC(CC)O[C@@H]1CC(C(=O)O)=C[C@H](NC(C)=O)[C@H]1NC(C)=O` were, in that order, 41 µM and 40 µM.
